Measurements taken from PMC6886798, “Expression of myeloid Src-family kinases is associated with poor prognosis in AML and influences Flt3-ITD kinase inhibitor acquired resistance” (PLoS ONE, 2019).

Assays:
Test in all cases: KINOMEscan
Format in all cases: binding
Settings in all cases: 1.0 µM
[1] = biological target: T1, ABL1-phosphorylated (Homo sapiens, UniProt P00519)
T1 construct: purchased Eurofins/DiscoverX KINOMEscan scanMAX
Experimental: (§1) Kinase retention to the immobilized ligand is then measured using quantitative real-time PCR for each kinase-specific DNA barcode.

[2] = biological target: T2, ACVR2B (Homo sapiens, UniProt Q13705)
T2 construct: purchased Eurofins/DiscoverX KINOMEscan scanMAX
Experimental: as §1

[3] = biological target: T3, AKT3 (Homo sapiens, UniProt Q9Y243)
T3 construct: purchased Eurofins/DiscoverX KINOMEscan scanMAX
Experimental: as §1

[4] = biological target: T4, ALK(L1196M) (Homo sapiens, UniProt Q9UM73, L1196M)
T4 construct: purchased Eurofins/DiscoverX KINOMEscan scanMAX
Experimental: as §1

[5] = biological target: T5, BIKE (Homo sapiens, UniProt Q9NSY1)
T5 construct: purchased Eurofins/DiscoverX KINOMEscan scanMAX
Experimental: as §1

[6] = biological target: T6, CLK3 (Homo sapiens, UniProt P49761)
T6 construct: purchased Eurofins/DiscoverX KINOMEscan scanMAX
Experimental: as §1

[7] = biological target: T7, CSNK1G3 (Homo sapiens, UniProt Q9Y6M4)
T7 construct: purchased Eurofins/DiscoverX KINOMEscan scanMAX
Experimental: as §1

[8] = biological target: T8, DAPK1 (Homo sapiens, UniProt P53355)
T8 construct: purchased Eurofins/DiscoverX KINOMEscan scanMAX
Experimental: as §1

[9] = biological target: T9, EPHA8 (Homo sapiens, UniProt P29322)
T9 construct: purchased Eurofins/DiscoverX KINOMEscan scanMAX
Experimental: as §1

[10] = biological target: T10, GRK3 (Homo sapiens, UniProt P35626)
T10 construct: purchased Eurofins/DiscoverX KINOMEscan scanMAX
Experimental: as §1

[11] = biological target: T11, HIPK1 (Homo sapiens, UniProt Q86Z02)
T11 construct: purchased Eurofins/DiscoverX KINOMEscan scanMAX
Experimental: as §1

[12] = biological target: T12, HUNK (Homo sapiens, UniProt P57058)
T12 construct: purchased Eurofins/DiscoverX KINOMEscan scanMAX
Experimental: as §1

[13] = biological target: T13, IRAK3 (Homo sapiens, UniProt Q9Y616)
T13 construct: purchased Eurofins/DiscoverX KINOMEscan scanMAX
Experimental: as §1

[14] = biological target: T14, JAK1(JH1domain-catalytic) (Homo sapiens, UniProt P23458)
T14 construct: JAK1(JH1domain-catalytic); purchased Eurofins/DiscoverX KINOMEscan scanMAX
Experimental: as §1

[15] = biological target: T15, KIT-autoinhibited (Homo sapiens, UniProt P10721)
T15 construct: purchased Eurofins/DiscoverX KINOMEscan scanMAX
Experimental: as §1

[16] = biological target: T16, LATS1 (Homo sapiens, UniProt O95835)
T16 construct: purchased Eurofins/DiscoverX KINOMEscan scanMAX
Experimental: as §1

[17] = biological target: T17, MAP3K1 (Homo sapiens, UniProt Q13233)
T17 construct: purchased Eurofins/DiscoverX KINOMEscan scanMAX
Experimental: as §1

[18] = biological target: T18, MAP3K3 (Homo sapiens, UniProt Q99759)
T18 construct: purchased Eurofins/DiscoverX KINOMEscan scanMAX
Experimental: as §1

[19] = biological target: T19, MAP3K4 (Homo sapiens, UniProt Q9Y6R4)
T19 construct: purchased Eurofins/DiscoverX KINOMEscan scanMAX
Experimental: as §1

[20] = biological target: T20, MARK3 (Homo sapiens, UniProt P27448)
T20 construct: purchased Eurofins/DiscoverX KINOMEscan scanMAX
Experimental: as §1

[21] = biological target: T21, MLCK (Homo sapiens, UniProt Q32MK0)
T21 construct: purchased Eurofins/DiscoverX KINOMEscan scanMAX
Experimental: as §1

[22] = biological target: T22, MST1 (Homo sapiens, UniProt Q13043)
T22 construct: purchased Eurofins/DiscoverX KINOMEscan scanMAX
Experimental: as §1

[23] = biological target: T23, MST2 (Homo sapiens, UniProt Q13188)
T23 construct: purchased Eurofins/DiscoverX KINOMEscan scanMAX
Experimental: as §1

[24] = biological target: T24, MYLK2 (Homo sapiens, UniProt Q9H1R3)
T24 construct: purchased Eurofins/DiscoverX KINOMEscan scanMAX
Experimental: as §1

[25] = biological target: T25, PAK4 (Homo sapiens, UniProt O96013)
T25 construct: purchased Eurofins/DiscoverX KINOMEscan scanMAX
Experimental: as §1

[26] = biological target: T26, PIK3CA(E545A) (Homo sapiens, UniProt P42336, E545A)
T26 construct: purchased Eurofins/DiscoverX KINOMEscan scanMAX
Experimental: as §1

[27] = biological target: T27, PRKCH (Homo sapiens, UniProt P24723)
T27 construct: purchased Eurofins/DiscoverX KINOMEscan scanMAX
Experimental: as §1

[28] = biological target: T28, PRKCQ (Homo sapiens, UniProt Q04759)
T28 construct: purchased Eurofins/DiscoverX KINOMEscan scanMAX
Experimental: as §1

[29] = biological target: T29, PRKD3 (Homo sapiens, UniProt O94806)
T29 construct: purchased Eurofins/DiscoverX KINOMEscan scanMAX
Experimental: as §1

[30] = biological target: T30, RET (Homo sapiens, UniProt P07949)
T30 construct: purchased Eurofins/DiscoverX KINOMEscan scanMAX
Experimental: as §1

[31] = biological target: T31, RET(V804M) (Homo sapiens, UniProt P07949, V804M)
T31 construct: purchased Eurofins/DiscoverX KINOMEscan scanMAX
Experimental: as §1

[32] = biological target: T32, SGK2 (Homo sapiens, UniProt Q9HBY8)
T32 construct: purchased Eurofins/DiscoverX KINOMEscan scanMAX
Experimental: as §1

[33] = biological target: T33, SIK (Homo sapiens, UniProt P57059)
T33 construct: purchased Eurofins/DiscoverX KINOMEscan scanMAX
Experimental: as §1

[34] = biological target: T34, SNARK (Homo sapiens, UniProt Q9H093)
T34 construct: purchased Eurofins/DiscoverX KINOMEscan scanMAX
Experimental: as §1

[35] = biological target: T35, SRPK1 (Homo sapiens, UniProt Q96SB4)
T35 construct: purchased Eurofins/DiscoverX KINOMEscan scanMAX
Experimental: as §1

[36] = biological target: T36, STK16 (Homo sapiens, UniProt O75716)
T36 construct: purchased Eurofins/DiscoverX KINOMEscan scanMAX
Experimental: as §1

[37] = biological target: T37, TAK1 (Homo sapiens, UniProt O43318)
T37 construct: purchased Eurofins/DiscoverX KINOMEscan scanMAX
Experimental: as §1

[38] = biological target: T38, TAOK2 (Homo sapiens, UniProt Q9UL54)
T38 construct: purchased Eurofins/DiscoverX KINOMEscan scanMAX
Experimental: as §1

[39] = biological target: T39, TRKC (Homo sapiens, UniProt Q16288)
T39 construct: DNA tag (qPCR barcode); purchased Eurofins/DiscoverX KINOMEscan scanMAX
Experimental: as §1

[40] = biological target: T40, WEE2 (Homo sapiens, UniProt P0C1S8)
T40 construct: DNA tag (qPCR barcode); purchased Eurofins/DiscoverX KINOMEscan scanMAX
Experimental: as §1

[41] = biological target: T41, WNK3 (Homo sapiens, UniProt Q9BYP7)
T41 construct: DNA tag (qPCR barcode); purchased Eurofins/DiscoverX KINOMEscan scanMAX
Experimental: as §1

[42] = biological target: T42, YSK1 (Homo sapiens, UniProt O00506)
T42 construct: purchased Eurofins/DiscoverX (KINOMEscan scanMAX service)
Experimental: as §1

T12 sequence (P57058 whole entry): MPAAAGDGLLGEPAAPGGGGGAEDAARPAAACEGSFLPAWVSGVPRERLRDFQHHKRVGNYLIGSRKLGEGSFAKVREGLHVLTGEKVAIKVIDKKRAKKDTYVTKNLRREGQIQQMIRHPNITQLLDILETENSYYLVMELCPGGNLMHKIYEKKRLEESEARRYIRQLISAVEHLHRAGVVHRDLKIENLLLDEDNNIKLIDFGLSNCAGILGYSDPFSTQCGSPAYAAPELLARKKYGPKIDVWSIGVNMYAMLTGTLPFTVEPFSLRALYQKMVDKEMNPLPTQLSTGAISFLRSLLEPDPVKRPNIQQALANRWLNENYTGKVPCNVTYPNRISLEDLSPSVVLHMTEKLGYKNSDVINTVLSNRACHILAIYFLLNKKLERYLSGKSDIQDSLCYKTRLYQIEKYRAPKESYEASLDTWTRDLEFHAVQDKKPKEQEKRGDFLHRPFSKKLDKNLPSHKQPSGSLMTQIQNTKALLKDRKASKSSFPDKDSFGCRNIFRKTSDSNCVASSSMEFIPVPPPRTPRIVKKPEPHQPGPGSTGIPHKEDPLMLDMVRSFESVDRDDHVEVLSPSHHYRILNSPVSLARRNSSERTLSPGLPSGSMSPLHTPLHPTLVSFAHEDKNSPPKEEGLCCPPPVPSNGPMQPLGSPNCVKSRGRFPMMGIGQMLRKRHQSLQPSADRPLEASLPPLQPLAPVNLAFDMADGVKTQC
T41 sequence (Q9BYP7 whole entry): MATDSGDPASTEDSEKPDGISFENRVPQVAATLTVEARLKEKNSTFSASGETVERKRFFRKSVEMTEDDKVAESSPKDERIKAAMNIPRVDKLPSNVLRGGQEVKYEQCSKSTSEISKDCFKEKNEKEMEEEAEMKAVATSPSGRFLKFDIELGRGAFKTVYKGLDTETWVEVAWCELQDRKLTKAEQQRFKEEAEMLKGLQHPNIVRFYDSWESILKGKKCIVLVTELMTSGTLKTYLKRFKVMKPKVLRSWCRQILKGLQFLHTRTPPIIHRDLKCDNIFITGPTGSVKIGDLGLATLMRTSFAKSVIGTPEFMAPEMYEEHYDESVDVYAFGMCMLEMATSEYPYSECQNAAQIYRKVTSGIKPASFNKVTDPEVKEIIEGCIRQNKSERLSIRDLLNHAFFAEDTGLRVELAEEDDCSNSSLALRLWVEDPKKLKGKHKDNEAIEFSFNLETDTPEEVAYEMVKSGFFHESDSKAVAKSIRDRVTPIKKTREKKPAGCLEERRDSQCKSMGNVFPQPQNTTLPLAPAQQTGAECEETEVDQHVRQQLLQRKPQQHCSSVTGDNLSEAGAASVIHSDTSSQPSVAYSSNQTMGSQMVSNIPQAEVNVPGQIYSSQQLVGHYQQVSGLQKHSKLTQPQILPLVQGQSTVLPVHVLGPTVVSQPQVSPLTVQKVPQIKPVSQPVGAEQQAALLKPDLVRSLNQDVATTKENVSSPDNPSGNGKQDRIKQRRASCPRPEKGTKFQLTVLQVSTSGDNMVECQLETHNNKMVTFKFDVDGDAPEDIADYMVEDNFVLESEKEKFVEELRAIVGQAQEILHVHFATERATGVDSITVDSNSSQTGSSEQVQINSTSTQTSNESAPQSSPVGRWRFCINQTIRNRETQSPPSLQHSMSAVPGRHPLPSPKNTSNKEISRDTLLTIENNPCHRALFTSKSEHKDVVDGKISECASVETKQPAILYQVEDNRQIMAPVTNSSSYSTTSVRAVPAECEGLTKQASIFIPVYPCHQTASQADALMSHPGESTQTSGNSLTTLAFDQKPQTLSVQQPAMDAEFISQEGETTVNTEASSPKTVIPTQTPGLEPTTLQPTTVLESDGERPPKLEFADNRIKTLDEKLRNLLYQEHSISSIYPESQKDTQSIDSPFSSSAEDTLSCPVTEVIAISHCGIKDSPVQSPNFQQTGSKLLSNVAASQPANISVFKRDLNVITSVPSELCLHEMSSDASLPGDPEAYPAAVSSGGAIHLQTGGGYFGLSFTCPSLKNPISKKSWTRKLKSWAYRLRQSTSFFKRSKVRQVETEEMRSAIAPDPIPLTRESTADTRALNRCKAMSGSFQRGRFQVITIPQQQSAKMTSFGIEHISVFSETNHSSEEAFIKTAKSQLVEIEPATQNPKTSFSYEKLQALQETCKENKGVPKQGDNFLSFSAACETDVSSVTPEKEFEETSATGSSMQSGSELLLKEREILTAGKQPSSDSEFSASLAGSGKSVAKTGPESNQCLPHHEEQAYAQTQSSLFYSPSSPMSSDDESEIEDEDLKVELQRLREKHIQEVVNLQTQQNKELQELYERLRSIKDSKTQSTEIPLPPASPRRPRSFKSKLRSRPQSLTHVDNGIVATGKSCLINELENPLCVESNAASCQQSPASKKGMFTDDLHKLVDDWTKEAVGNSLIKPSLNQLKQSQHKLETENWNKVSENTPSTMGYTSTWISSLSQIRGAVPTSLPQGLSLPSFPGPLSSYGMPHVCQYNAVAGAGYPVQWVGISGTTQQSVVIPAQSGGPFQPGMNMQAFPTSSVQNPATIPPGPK
T13 sequence (Q9Y616 whole entry): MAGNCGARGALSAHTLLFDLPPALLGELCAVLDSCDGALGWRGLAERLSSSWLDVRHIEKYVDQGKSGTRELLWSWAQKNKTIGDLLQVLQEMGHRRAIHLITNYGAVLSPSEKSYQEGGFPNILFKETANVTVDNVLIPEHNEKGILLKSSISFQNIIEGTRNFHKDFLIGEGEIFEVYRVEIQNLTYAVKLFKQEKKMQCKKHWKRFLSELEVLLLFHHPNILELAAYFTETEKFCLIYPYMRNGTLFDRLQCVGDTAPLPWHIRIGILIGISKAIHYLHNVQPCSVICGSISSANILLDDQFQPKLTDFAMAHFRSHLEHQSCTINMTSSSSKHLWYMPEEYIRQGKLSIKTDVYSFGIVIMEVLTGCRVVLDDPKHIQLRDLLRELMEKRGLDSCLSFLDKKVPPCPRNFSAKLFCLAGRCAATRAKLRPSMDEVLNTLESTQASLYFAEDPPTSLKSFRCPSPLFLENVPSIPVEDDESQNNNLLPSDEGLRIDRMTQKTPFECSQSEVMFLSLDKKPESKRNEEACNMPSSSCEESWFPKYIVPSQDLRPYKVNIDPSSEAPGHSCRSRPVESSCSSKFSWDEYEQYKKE
T24 sequence (Q9H1R3 whole entry): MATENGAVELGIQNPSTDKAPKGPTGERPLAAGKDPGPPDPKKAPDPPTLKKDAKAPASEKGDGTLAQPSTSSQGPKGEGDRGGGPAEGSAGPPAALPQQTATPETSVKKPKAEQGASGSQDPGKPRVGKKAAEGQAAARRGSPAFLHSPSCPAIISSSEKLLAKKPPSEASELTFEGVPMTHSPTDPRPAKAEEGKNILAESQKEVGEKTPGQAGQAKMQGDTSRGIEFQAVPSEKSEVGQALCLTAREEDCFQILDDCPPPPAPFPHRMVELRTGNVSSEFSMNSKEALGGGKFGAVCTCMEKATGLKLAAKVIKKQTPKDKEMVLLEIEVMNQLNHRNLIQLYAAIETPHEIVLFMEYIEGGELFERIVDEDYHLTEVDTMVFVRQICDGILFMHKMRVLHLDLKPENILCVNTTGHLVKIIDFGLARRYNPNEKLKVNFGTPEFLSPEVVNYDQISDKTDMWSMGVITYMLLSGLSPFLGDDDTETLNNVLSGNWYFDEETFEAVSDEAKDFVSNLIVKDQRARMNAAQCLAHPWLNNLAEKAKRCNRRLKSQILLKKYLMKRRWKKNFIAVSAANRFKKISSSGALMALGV
T39 sequence (Q16288 32-839): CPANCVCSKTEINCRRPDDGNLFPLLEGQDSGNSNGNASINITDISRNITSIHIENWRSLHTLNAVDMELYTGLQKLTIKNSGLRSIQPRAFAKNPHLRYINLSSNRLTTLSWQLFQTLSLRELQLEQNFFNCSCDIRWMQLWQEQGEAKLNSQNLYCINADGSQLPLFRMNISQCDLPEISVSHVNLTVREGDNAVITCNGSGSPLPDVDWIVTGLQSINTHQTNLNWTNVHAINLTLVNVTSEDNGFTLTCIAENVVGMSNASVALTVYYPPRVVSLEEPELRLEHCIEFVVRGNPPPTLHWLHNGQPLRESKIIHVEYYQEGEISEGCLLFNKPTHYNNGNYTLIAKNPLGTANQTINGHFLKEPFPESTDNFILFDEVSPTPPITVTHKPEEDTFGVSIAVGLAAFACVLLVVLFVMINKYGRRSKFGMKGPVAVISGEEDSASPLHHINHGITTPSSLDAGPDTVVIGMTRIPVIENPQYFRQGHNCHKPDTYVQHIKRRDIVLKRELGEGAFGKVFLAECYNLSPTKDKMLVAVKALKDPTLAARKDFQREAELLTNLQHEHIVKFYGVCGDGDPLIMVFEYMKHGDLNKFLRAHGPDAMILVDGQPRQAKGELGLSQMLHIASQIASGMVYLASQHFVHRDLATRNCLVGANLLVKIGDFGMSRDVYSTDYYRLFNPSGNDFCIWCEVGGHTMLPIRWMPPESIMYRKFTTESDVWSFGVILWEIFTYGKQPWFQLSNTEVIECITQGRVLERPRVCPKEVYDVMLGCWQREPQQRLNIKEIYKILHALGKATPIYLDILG
T6 sequence (P49761 whole entry): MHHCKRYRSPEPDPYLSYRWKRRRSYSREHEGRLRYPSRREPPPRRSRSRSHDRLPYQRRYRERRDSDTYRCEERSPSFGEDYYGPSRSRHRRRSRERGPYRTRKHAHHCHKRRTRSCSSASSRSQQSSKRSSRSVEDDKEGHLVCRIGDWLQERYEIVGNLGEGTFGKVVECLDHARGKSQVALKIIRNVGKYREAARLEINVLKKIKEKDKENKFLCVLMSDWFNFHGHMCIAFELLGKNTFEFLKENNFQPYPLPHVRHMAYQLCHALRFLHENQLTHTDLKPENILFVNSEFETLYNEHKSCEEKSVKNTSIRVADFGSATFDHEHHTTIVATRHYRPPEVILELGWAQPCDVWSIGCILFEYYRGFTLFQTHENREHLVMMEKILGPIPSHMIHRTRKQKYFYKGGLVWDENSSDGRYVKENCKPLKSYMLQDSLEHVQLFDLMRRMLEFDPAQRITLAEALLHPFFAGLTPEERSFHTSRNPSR

SMILES: CN1CCN(C2CCC(n3cc(-c4ccc(Oc5ccccc5)cc4)c4c(N)ncnc43)CC2)CC1 (stereo not drawn) [A-419259]
- % Control [1]: 0.25%
- % Control [2]: 100%
- % Control [3]: 100%
- % Control [4]: 68%
- % Control [5]: 80%
- % Control [6]: 100%
- % Control [7]: 100%
- % Control [8]: 99%
- % Control [9]: 72%
- % Control [10]: 100%
- % Control [11]: 80%
- % Control [12]: 100%
- % Control [13]: 89%
- % Control [14]: 99%
- % Control [15]: 6.9%
- % Control [16]: 30%
- % Control [17]: 92%
- % Control [18]: 6.3%
- % Control [19]: 92%
- % Control [20]: 83%
- % Control [21]: 66%
- % Control [22]: 34%
- % Control [23]: 82%
- % Control [24]: 95%
- % Control [25]: 93%
- % Control [26]: 100%
- % Control [27]: 87%
- % Control [28]: 66%
- % Control [29]: 17%
- % Control [30]: 0%
- % Control [31]: 21%
- % Control [32]: 90%
- % Control [33]: 2.1%
- % Control [34]: 26%
- % Control [35]: 100%
- % Control [36]: 100%
- % Control [37]: 77%
- % Control [38]: 85%
- % Control [39]: 45%
- % Control [40]: 90%
- % Control [41]: 46%
- % Control [42]: 84%
